From ChEMBL document CHEMBL2046268 (Eur J Med Chem, 2012) come the findings set out here.

Activity calls are given as the source filed them. The calls are words filed in the database; no cut-off is given here. *1 amine or outer side, *2 acyl side, *3 side chain or, on linkers, in order; H or OH if unused. Where a SMILES comes first, the peptide text is derived from it. Bridges are numbered along the chain shown (N, C = ends). Roman numbers before positions name the chains, in order. [ ]: non-standard residue; d: D form. Actinocin(1to9) = Cc1c2oc3c(C)ccc(C(=O)[*:2])c3nc-2c(C(=O)[*:1])c(N)c1=O; NMeV = CN[C@H](C(=O)O)C(C)C; Sar = CNCC(=O)O

Test [1] relates to HeLa. Put plainly: Induction of apoptosis in human HeLa cells assessed as phosphatidylserine externalization after 0.5 to 4 hrs using annexin/PI staining by fluorescence microscopy. The format is functional, cell-based.
Test [2] has as its system HeLa. The experiment in a line: Cytotoxicity against human HeLa cells assessed as cell viability after 48 hrs by MTT assay. The format is functional, cell-based. On the technique in general: Tetrazolium dyes change colour on reduction, which living cells bring about.
In test [3] the test system is MCF7. The experiment in a line: Cytotoxicity against human MCF7 cells assessed as cell viability after 48 hrs by MTT assay. The format is functional, cell-based. The note with it: MCF7, 48 h.
The test system of test [4] is HeLa. The experiment in a line: Induction of apoptosis in human HeLa cells assessed as phosphatidylserine externalization at 1 uM using annexin/PI staining by fluorescence microscopy. In kind it is functional, cell-based. The note with it: TDE = time-dependent effect.
The test system of test [5] is A549. The experiment in a line: Cytotoxicity against human A549 cells assessed as cell viability after 48 hrs by MTT assay. The note with it: A549, 48 h. In kind it is functional, cell-based.
The subject of test [6] is Vero. Put plainly: Selectivity index, ratio of IC50 for african green monkey Vero cells to IC50 for human MCF7 cells after 48 hrs.
Test [7] has as its system HeLa. The experiment in a line: Induction of apoptosis in human HeLa cells assessed as DNA fragmentation by agarose gel electrophoresis. The format is functional, cell-based.
Test [8] deals with HeLa. The experiment in a line: Induction of apoptosis in human HeLa cells assessed as necrotic cells at 1 uM using annexin/PI staining by fluorescence microscopy. To be noted: TDE = time-dependent effect. In kind it is functional, cell-based.
Test [9] concerns HeLa. Put plainly: Induction of apoptosis in human HeLa cells assessed as necrotic cells after 0.5 to 4 hrs using annexin/PI staining by fluorescence microscopy. In kind it is functional, cell-based.
Test [10] deals with MCF7. The experiment in a line: Cytotoxicity against human MCF7 cells assessed as cell viability after 72 hrs by MTT assay. In kind it is functional, cell-based. The note with it: MCF7, 72 h.
The test system of test [11] is HeLa. Put plainly: Induction of apoptosis in human HeLa cells assessed as DNA fragmentation at 16 uM after 48 hrs by agarose gel electrophoresis. The format is functional, cell-based.
Test [12] has as its system HeLa. The experiment in a line: Induction of apoptosis in human HeLa cells assessed as late apoptotic cells at 2 to 4 uM up to 4 hrs using annexin/PI staining by fluorescence microscopy. The format is functional, cell-based.
The test system of test [13] is HeLa. Put plainly: Induction of apoptosis in human HeLa cells assessed as DNA fragmentation at 4 to 32 uM after 12 hrs by agarose gel electrophoresis. The format is functional, cell-based.
Test [14] has as its system HeLa. The experiment in a line: Induction of apoptosis in human HeLa cells assessed as DNA fragmentation at 16 to 32 uM after 24 hrs by agarose gel electrophoresis. The format is functional, cell-based.
In test [15] the target is T1, Caspase-3 (Homo sapiens) (UniProt P42574).
T1 sequence (whole entry): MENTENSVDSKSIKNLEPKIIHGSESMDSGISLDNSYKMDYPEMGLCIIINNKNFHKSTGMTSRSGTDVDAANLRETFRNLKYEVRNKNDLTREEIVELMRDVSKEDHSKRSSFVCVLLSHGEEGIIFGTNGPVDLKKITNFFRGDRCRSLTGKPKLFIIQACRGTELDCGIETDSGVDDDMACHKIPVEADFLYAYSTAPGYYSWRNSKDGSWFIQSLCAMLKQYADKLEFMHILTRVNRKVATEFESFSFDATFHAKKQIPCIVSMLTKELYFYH
Put plainly: Induction of caspase 3 activation in human HeLa cells using Ac-DEVD-pNA after 4 hrs by Bradford assay. The format is cell-based.

Test [16] has as its system HeLa. Put plainly: Increase in apoptosis in human HeLa cells at 8 uM after 12 hrs using Hoechst 33342 staining by fluorescence microscopic analysis relative to control. The format is functional.
In test [17] the test system is HeLa. The experiment in a line: Induction of apoptosis in human HeLa cells assessed as necrotic cells at 2 to 16 uM using annexin/PI staining by fluorescence microscopy. In kind it is functional, cell-based. The note with it: TDE = time-dependent effect.
The subject of test [18] is HeLa. The experiment in a line: Induction of apoptosis in human HeLa cells assessed as early apoptotic cells at 2 to 4 uM up to 4 hrs using annexin/PI staining by fluorescence microscopy. In kind it is functional, cell-based.
For test [19], the target named is T1, Caspase-3 (Homo sapiens). The experiment in a line: Induction of caspase 3 activation in human HeLa cells using Ac-DEVD-pNA at 8 uM after 4 hrs by Bradford assay. The format is cell-based.
Test [20] concerns Vero. Put plainly: Cytotoxicity against african green monkey Vero cells assessed as cell viability after 72 hrs by MTT assay. The format is cell-based. To be noted: Chlorocebus sabaeus.
For test [21], the system named is HeLa. The experiment in a line: Induction of apoptosis in human HeLa cells assessed as chromatin condensation at 8 uM after 12 hrs using Hoechst 33342 staining by fluorescence microscopic analysis. The format is functional, cell-based.
Test [22] addresses T1, Caspase-3 (Homo sapiens). Put plainly: Induction of caspase 3 activation in human HeLa cells using Ac-DEVD-pNA at 4 uM after 4 hrs by Bradford assay. The format is cell-based.
The subject of test [23] is A549. Put plainly: Cytotoxicity against human A549 cells assessed as cell viability after 72 hrs by MTT assay. In kind it is functional, cell-based. The note with it: A549, 72 h.
In test [24] the test system is Vero. Put plainly: Cytotoxicity against african green monkey Vero cells assessed as cell viability after 48 hrs by MTT assay. The note with it: Chlorocebus sabaeus. The format is cell-based.
For test [25], the system named is HeLa. Put plainly: Induction of apoptosis in human HeLa cells assessed as phosphatidylserine externalization at 2 to 16 uM using annexin/PI staining by fluorescence microscopy. The note with it: TDE = time-dependent effect. The format is functional, cell-based.
The test system of test [26] is HeLa. Put plainly: Cytotoxicity against human HeLa cells assessed as cell viability after 72 hrs by MTT assay. In kind it is functional, cell-based.
The subject of test [27] is HeLa. The experiment in a line: Induction of apoptosis in human HeLa cells assessed as formation of apoptotic bodies at 8 uM after 12 hrs using Hoechst 33342 staining by fluorescence microscopic analysis. In kind it is functional, cell-based.

A word on the IC50: it is the midpoint of a concentration-inhibition curve. Regarding `Cc1c2oc3c(C)ccc(C(=O)N[C@@H]4C(=O)N[C@H](C(C)C)C(=O)N5CCC[C@H]5C(=O)N(C)CC(=O)N(C)[C@@H](C(C)C)C(=O)O[C@@H]4C)c3nc-2c(C(=O)N[C@@H]2C(=O)N[C@H](C(C)C)C(=O)N3CCC[C@H]3C(=O)N(C)CC(=O)N(C)[C@@H](C(C)C)C(=O)O[C@@H]2C)c(N)c1=O` [DACTINOMYCIN] (I: T[dV]P[Sar][NMeV] / II: T[dV]P[Sar][NMeV]; ester I:1-I:C, II:1-II:C; linker I:N-II:N via Actinocin(1to9)), the Activity entry was “Dose-dependent effect” in the test on HeLa [1], “tde” in the test on HeLa [4], “tde” in the test with HeLa [8] and “Dose-dependent effect” with HeLa [9]. The IC50 worked out at 1.1 nM with HeLa [2], 24 nM in the test on MCF7 [3] and 7.2 nM in the test with A549 [5]. Further, in the test with Vero [6], the “Ratio IC50” value was 3. Further, the outcome in the test with HeLa [7] was Active.
Consider `CC1=C(C)C(=O)O[C@@H]([C@@H](C)[C@H]2CC=C3[C@@H]4C[C@H]5O[C@]56[C@@H](O)C=CC(=O)[C@]6(C)[C@H]4CC[C@@]32C)C1`, for which the Activity entry in the test with HeLa [1] is “Dose-dependent effect”; on Caspase-3 (Homo sapiens) [15], “Dose-dependent effect”; with HeLa [16], 27%; in the test with HeLa [17] it was “tde”; in the test with HeLa [9] it was “Dose-dependent effect”; in the test on HeLa [25], “tde”. In addition, the concentration for half-maximal inhibition (IC50) with HeLa [2] was determined as 3500 nM; with MCF7 [10], 300 nM; with MCF7 [3], 1300 nM; with A549 [5] it was 2600 nM; in the test with Vero [20], 1200 nM; in the test with A549 [23], 2100 nM. Also, the IC50 in the test on Vero [24] came to 6200 nM; in the test on HeLa [26], 2900 nM. Further, the result with HeLa [11], in the test with HeLa [13], with HeLa [14], at Caspase-3 (Homo sapiens) [19] and on Caspase-3 (Homo sapiens) [22] was inactive. Besides, the outcome in the test on HeLa [12], in the test on HeLa [18], with HeLa [21] and in the test on HeLa [27] was Active. Further, the “Ratio IC50” value with Vero [6] was found to be 1.7.
